Experimental data: PubChem BioAssay AID2060903 (Molecular Pharmacology Branch, DTP, NCI, 2025)
pIC50: −log10 of the molar value. One block for each compound: values may come before it.

Test system: 377384-186-R-J1-PDC complex spheroid viability
Test: Anticancer human tumor 377384-186-R-J1-PDC patient-derived pancreatic carcinoma cell line growth inhibition [RAS]
Settings: for viability, T/C: stronger effect = lower value
Method in brief: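 Tumour cells grown as complex spheroids with HUVEC endothelial cells and mesenchymal stem cells, treated with RAS pathway inhibitor combinations. Each agent spans half-log steps from near clinical Cmax, or 10 microM where Cmax is unknown.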

[1] = curve of first compound, second compound 0.0316 µM
[2] = curve of first compound, second compound 0.1 µM
[3] = curve of first compound, second compound 0.316 µM
[4] = curve of first compound, second compound 1 µM
[5] = curve of first compound, second compound 3.16 µM
[6] = curve of first compound, second compound 10 µM
[7] = second compound 0.0316 µM, first compound 0.0316 µM
[8] = second compound 0.0316 µM, first compound 0.1 µM
[9] = second compound 0.1 µM, first compound 0.0316 µM
[10] = second compound 0.1 µM, first compound 0.1 µM
[11] = second compound 0.316 µM, first compound 0.0316 µM
[12] = second compound 0.316 µM, first compound 0.1 µM
[13] = second compound 1 µM, first compound 0.0316 µM
[14] = second compound 1 µM, first compound 0.1 µM
[15] = second compound 3.16 µM, first compound 0.0316 µM
[16] = second compound 3.16 µM, first compound 0.1 µM
[17] = second compound 10 µM, first compound 0.0316 µM
[18] = second compound 10 µM, first compound 0.1 µM
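Note: spheroids exposed to compounds for seven days before readout.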

pIC50 [1]: > 9.50
pIC50 [2]: > 9.50
pIC50 [3]: > 9.50
pIC50 [4]: > 9.50
pIC50 [5]: > 9.50
pIC50 [6]: > 9.50
Structure (SMILES): CC(C)n1nc(-c2ccc3oc(N)nc3c2)c2c(N)ncnc21 + C#Cc1c(F)ccc2cc(O)cc(-c3ncc4c(N5CC6CCC(C5)N6)nc(OCC56CCCN5CC(F)C6)nc4c3F)c12
viability, T/C (second compound 0.0316 µM, first compound 0.000316 µM): 23.1%
viability, T/C (second compound 0.0316 µM, first compound 0.001 µM): 17.9%
viability, T/C (second compound 0.0316 µM, first compound 0.00316 µM): 13.3%
viability, T/C (second compound 0.0316 µM, first compound 0.01 µM): 16.1%
viability, T/C [7]: 8.86%
viability, T/C [8]: 7.03%
viability, T/C (second compound 0.1 µM, first compound 0.000316 µM): 9.35%
viability, T/C (second compound 0.1 µM, first compound 0.001 µM): 10.2%
viability, T/C (second compound 0.1 µM, first compound 0.00316 µM): 8.78%
viability, T/C (second compound 0.1 µM, first compound 0.01 µM): 8.07%
viability, T/C [9]: 4.39%
viability, T/C [10]: 3.64%
viability, T/C (second compound 0.316 µM, first compound 0.000316 µM): 4.61%
viability, T/C (second compound 0.316 µM, first compound 0.001 µM): 4.79%
viability, T/C (second compound 0.316 µM, first compound 0.00316 µM): 3.5%
viability, T/C (second compound 0.316 µM, first compound 0.01 µM): 3.8%
viability, T/C [11]: 2.4%
viability, T/C [12]: 2.03%
viability, T/C (second compound 1 µM, first compound 0.000316 µM): 2.88%
viability, T/C (second compound 1 µM, first compound 0.001 µM): 2.78%
viability, T/C (second compound 1 µM, first compound 0.00316 µM): 2.19%
viability, T/C (second compound 1 µM, first compound 0.01 µM): 2.05%
viability, T/C [13]: 1.53%
viability, T/C [14]: 1.23%
viability, T/C (second compound 3.16 µM, first compound 0.000316 µM): 1.79%
viability, T/C (second compound 3.16 µM, first compound 0.001 µM): 2.07%
viability, T/C (second compound 3.16 µM, first compound 0.00316 µM): 2.15%
viability, T/C (second compound 3.16 µM, first compound 0.01 µM): 1.84%
viability, T/C [15]: 1.11%
viability, T/C [16]: 0.65%
viability, T/C (second compound 10 µM, first compound 0.000316 µM): 1.04%
viability, T/C (second compound 10 µM, first compound 0.001 µM): 0.81%
viability, T/C (second compound 10 µM, first compound 0.00316 µM): 0.8%
viability, T/C (second compound 10 µM, first compound 0.01 µM): 0.63%
viability, T/C [17]: 0.95%
viability, T/C [18]: 0.15%

IC50 (curve of compound): 2.58 µM [middle of 4 runs]
Structure (SMILES): CC(C)NCC(C(=O)N1CCN(c2ncnc3c2C(C)CC3O)CC1)c1ccc(Cl)cc1 (centres undefined)
viability, T/C (compound 0.1 µM): 92% [middle of 4 runs]
viability, T/C (compound 0.316 µM): 75.2% [middle of 4 runs]
viability, T/C (compound 1 µM): 63.2% [middle of 4 runs]
viability, T/C (compound 3.16 µM): 51.9% [middle of 4 runs]
viability, T/C (compound 10 µM): 36.2% [middle of 4 runs]

pIC50 [1]: > 7.50
pIC50 [2]: > 7.50
pIC50 [3]: > 7.50
pIC50 [4]: > 7.50
pIC50 [5]: > 7.50
pIC50 [6]: > 7.50
Structure (SMILES): CCC(CC)c1cc(NC2CCC(N)C2)n2nccc2n1 (centres undefined) + C#Cc1c(F)ccc2cc(O)cc(-c3ncc4c(N5CC6CCC(C5)N6)nc(OCC56CCCN5CC(F)C6)nc4c3F)c12
viability, T/C [7]: 27.3%
viability, T/C [8]: 24.2%
viability, T/C (second compound 0.0316 µM, first compound 0.316 µM): 22.7%
viability, T/C (second compound 0.0316 µM, first compound 1 µM): 16%
viability, T/C (second compound 0.0316 µM, first compound 3.16 µM): 1.58%
viability, T/C (second compound 0.0316 µM, first compound 10 µM): 5.35%
viability, T/C [9]: 10.8%
viability, T/C [10]: 12.2%
viability, T/C (second compound 0.1 µM, first compound 0.316 µM): 7.8%
viability, T/C (second compound 0.1 µM, first compound 1 µM): 9.56%
viability, T/C (second compound 0.1 µM, first compound 3.16 µM): 1.88%
viability, T/C (second compound 0.1 µM, first compound 10 µM): 5.23%
viability, T/C [11]: 5.57%
viability, T/C [12]: 5.89%
viability, T/C (second compound 0.316 µM, first compound 0.316 µM): 4.79%
viability, T/C (second compound 0.316 µM, first compound 1 µM): 4.23%
viability, T/C (second compound 0.316 µM, first compound 3.16 µM): 1.7%
viability, T/C (second compound 0.316 µM, first compound 10 µM): 5.13%
viability, T/C [13]: 3.15%
viability, T/C [14]: 3.52%
viability, T/C (second compound 1 µM, first compound 0.316 µM): 2.78%
viability, T/C (second compound 1 µM, first compound 1 µM): 3.71%
viability, T/C (second compound 1 µM, first compound 3.16 µM): 2.1%
viability, T/C (second compound 1 µM, first compound 10 µM): 6.67%
viability, T/C [15]: 2.7%
viability, T/C [16]: 2.53%
viability, T/C (second compound 3.16 µM, first compound 0.316 µM): 2.14%
viability, T/C (second compound 3.16 µM, first compound 1 µM): 2.51%
viability, T/C (second compound 3.16 µM, first compound 3.16 µM): 1.88%
viability, T/C (second compound 3.16 µM, first compound 10 µM): 6.5%
viability, T/C [17]: 1.53%
viability, T/C [18]: 1.24%
viability, T/C (second compound 10 µM, first compound 0.316 µM): 1.12%
viability, T/C (second compound 10 µM, first compound 1 µM): 1.66%
viability, T/C (second compound 10 µM, first compound 3.16 µM): 1.33%
viability, T/C (second compound 10 µM, first compound 10 µM): 3.5%

pIC50 (compound alone, run of 09/09/2024): > 7.50
Structure (SMILES): C#Cc1c(F)ccc2cc(O)cc(-c3ncc4c(N5CC6CCC(C5)N6)nc(OCC56CCCN5CC(F)C6)nc4c3F)c12 (centres undefined)
viability, T/C (compound 0.0316 µM): 25.6% [middle of 8 runs]
viability, T/C (compound 0.1 µM): 11.4% [middle of 8 runs]
viability, T/C (compound 0.316 µM): 4.64% [middle of 8 runs]
viability, T/C (compound 1 µM): 3.15% [middle of 8 runs]
viability, T/C (compound 3.16 µM): 2.31% [middle of 8 runs]
viability, T/C (compound 10 µM): 1.33% [middle of 8 runs]

pIC50 (curve of first compound, second compound 0.000949 µM): 6.90
pIC50 (curve of first compound, second compound 0.003 µM): > 7.50
pIC50 (curve of first compound, second compound 0.00949 µM): > 7.50
pIC50 (curve of first compound, second compound 0.03 µM): > 7.50
pIC50 (curve of first compound, second compound 0.0949 µM): > 7.50
pIC50 (curve of first compound, second compound 0.3 µM): > 7.50
Structure (SMILES): CC(C)NCC(C(=O)N1CCN(c2ncnc3c2C(C)CC3O)CC1)c1ccc(Cl)cc1 (centres undefined) + CCn1c(-c2cc(N3CCN(C)CC3)cnc2C(C)OC)c2c3cc(ccc31)-c1csc(n1)CC(NC(=O)C1CC1C)C(=O)N1CCCC(N1)C(=O)OCC(C)(C)C2
viability, T/C (second compound 0.000949 µM, first compound 0.0316 µM): 60.4%
viability, T/C (second compound 0.000949 µM, first compound 0.1 µM): 54.6%
viability, T/C (second compound 0.000949 µM, first compound 0.316 µM): 38.6%
viability, T/C (second compound 0.000949 µM, first compound 1 µM): 34.1%
viability, T/C (second compound 0.000949 µM, first compound 3.16 µM): 34.1%
viability, T/C (second compound 0.000949 µM, first compound 10 µM): 19%
viability, T/C (second compound 0.003 µM, first compound 0.0316 µM): 19.6%
viability, T/C (second compound 0.003 µM, first compound 0.1 µM): 21.2%
viability, T/C (second compound 0.003 µM, first compound 0.316 µM): 17.9%
viability, T/C (second compound 0.003 µM, first compound 1 µM): 16.4%
viability, T/C (second compound 0.003 µM, first compound 3.16 µM): 12.7%
viability, T/C (second compound 0.003 µM, first compound 10 µM): 8.24%
viability, T/C (second compound 0.00949 µM, first compound 0.0316 µM): 5.67%
viability, T/C (second compound 0.00949 µM, first compound 0.1 µM): 5.95%
viability, T/C (second compound 0.00949 µM, first compound 0.316 µM): 5.17%
viability, T/C (second compound 0.00949 µM, first compound 1 µM): 7.15%
viability, T/C (second compound 0.00949 µM, first compound 3.16 µM): 6.27%
viability, T/C (second compound 0.00949 µM, first compound 10 µM): 3.27%
viability, T/C (second compound 0.03 µM, first compound 0.0316 µM): 3.25%
viability, T/C (second compound 0.03 µM, first compound 0.1 µM): 2.3%
viability, T/C (second compound 0.03 µM, first compound 0.316 µM): 2.13%
viability, T/C (second compound 0.03 µM, first compound 1 µM): 1.68%
viability, T/C (second compound 0.03 µM, first compound 3.16 µM): 1.07%
viability, T/C (second compound 0.03 µM, first compound 10 µM): 0.92%
viability, T/C (second compound 0.0949 µM, first compound 0.0316 µM): 1.84%
viability, T/C (second compound 0.0949 µM, first compound 0.1 µM): 1.86%
viability, T/C (second compound 0.0949 µM, first compound 0.316 µM): 1.46%
viability, T/C (second compound 0.0949 µM, first compound 1 µM): 1.22%
viability, T/C (second compound 0.0949 µM, first compound 3.16 µM): 0.74%
viability, T/C (second compound 0.0949 µM, first compound 10 µM): 0.17%
viability, T/C (second compound 0.3 µM, first compound 0.0316 µM): 2%
viability, T/C (second compound 0.3 µM, first compound 0.1 µM): 2.02%
viability, T/C (second compound 0.3 µM, first compound 0.316 µM): 1.61%
viability, T/C (second compound 0.3 µM, first compound 1 µM): 0.77%
viability, T/C (second compound 0.3 µM, first compound 3.16 µM): 0.64%
viability, T/C (second compound 0.3 µM, first compound 10 µM): 0.3%
